Data: patent US20210154162A1, “DRUG AND PHARMACEUTICAL COMPOSITION CONTAINING TRANSPORT PROTEIN INHIBITOR, AND USE” (Institute of Basic Medical Sciences Chinese Academy of …, priority 2018, published 2021)

Key:
PD-1 promoter = PD-1 promoter luciferase reporter in HEK293T cells; assay type: cell-based; settings: Kyn 48 h
Protocol: (6) HEK293T cells were transiently co-transfected with the luciferase reporter PGL3 coupled to the PD-1 promoter together with an AhR or an empty plasmid for 24 h and then treated with Kyn for another 48 h.

CD8^+ T cells = assay: Essential amino acids in the cytosol of activated CD8+ T cells (LC-QE-MS); assay type: cell-based; settings: 48-hour Kyn treatment
Source text: Regarding the antiport function in many transport systems, the inventors additionally analyzed the influence of SLC7A8 and PAT4 on the transport of other essential amino acids. After 48-hour treatment with or without Kyn, anti-CD3/CD28 bead-activated CD8^+ T cells were used to analyze essential amino acids in the cytosol by LC-QE-MS.

OT-1 CD8^+ T cells = assay: IFN-γ expression of OT-1 CD8+ T cells co-cultured with OVA-peptide loaded APCs; assay type: cell-based, mouse; settings: OT-1 CD8+ T cells pretreated with Kyn 200 μM 72 h, upon PD-1 blockade
Protocol: (10) Splenic APCs pulsed with OVA257-264 (2 μg/ml) were co-cultured with OT-1 CD8^+ T cells in the presence of IgG or anti-PD-1 neutralizing antibody (10 μg/ml) for 72 h. IFN-γ expression was measured by flow cytometry (left). Or, CD8^+ T cells from OT-1 mice were treated with Kyn (200 μM) for 72 h, then co-cultured with OVA-peptide loaded APCs and treated with or without anti-PD-1 neutralizing antibody for 72 h (right). The data represented mean±SEM.

B16 melanoma = assay: B16 melanoma-bearing C57BL/6 mice treated with Kyn, DMF or Kyn+DMF; assay type: in vivo, mouse
Protocol: (9) C57BL/6 mice with 5×5 mm B16 melanoma were treated with PBS, Kyn (50 μg/mouse, i.p., once every two days), DMF (5 μg/mouse, o.t., once every day) or Kyn+DMF for 6 days. PD-1 expression in CD8^+ T cells isolated from tumors was determined by flow cytometry (n=5). (14) The experimental steps were the same as those of step (9), except that the tumors were weighed. The weighing results were as shown in FIG. 6P. *p<0.05, **p<0.01; #p<0.05, ##p<0.01, as compared with CTL group. The data represented mean±SEM.

PD-1 [1] = assay: PD-1 expression in human CD8+ T cells treated with Kyn and AhR inhibitors (flow cytometry); assay type: cell-based; settings: resting and activated CD8+ T cells from healthy donors, breast and lung cancer patients; Kyn 200 μM, 48 h
Protocol: (4) CD8^+ T cells isolated from PBMCs of patients with breast cancer or lung cancer were activated by anti-CD3/CD28 beads and treated with PBS, Kyn (200 μM) or Kyn/DMF (20 μM) for 48 h. The expression of PD-1 was determined by flow cytometry.
(5) CD8^+ T cells isolated from patients with breast cancer or lung cancer were treated with DMF (20 μM) for 48 h. PD-1 expression was determined by flow cytometry (n=6).

AhR = AhR translocation in human peripheral CD8+ T cells; assay type: cell-based; settings: resting and activated peripheral CD8+ T cells from breast and lung cancer patients, Kyn treatment
PAT4 and SLC7A8 [2] = assay: PAT4 and SLC7A8 expression in CD8+ T cells from breast cancer patients (real-time PCR); assay type: cell-based, human; settings: human CD8+ T cells, Kyn, 48 h
Protocol: (8) CD8^+ T cells from breast cancer patients were treated with PBS, Kyn ([…] (20 μM) or Kyn/CH (50 μM) for 48 h. The expression of PAT4 and SLC7A8 was determined by real-time PCR. The determination results were as shown in FIG. 7I.

PD-1 [3] = assay: Effect of SAR and BCH on PD-1 expression in mouse CD8+ T cells (flow cytometry); assay type: cell-based; settings: 200 μM Kyn, 48 h
Protocol: Mouse splenic CD8^+ T cells were obtained by magnetic bead sorting, and seeded into a U-shaped bottom 96-well plate (100000 cells/well) while anti-CD3/CD28 magnetic beads were added to activate T cells. The culture medium was RPMI-1640 added with 10 ng/mL mouse IL-2 and […] β-mercaptoethanol. Cells were grouped and treated with drugs as follows.
Control group 1 (PBS): culture medium+PBS;
Experimental group 2 (Kyn): culture medium+200 μM Kyn;
Experimental group 3 (Kyn+SAR): culture medium+200 μM Kyn+10 mM SAR;
Experimental group 4 (Kyn+BCH): culture medium+200 μM Kyn+100 μM BCH;
The expression level of PD-1 in CD8^+ T cells of each group was determined by flow cytometry after 48 h.

PAT4 and SLC7A8 [4] = assay: Effect of Kyn on the expression of PAT4 and SLC7A8 in human peripheral blood CD8+ T cells (fluorescence quantitative PCR); assay type: cell-based; settings: activated peripheral blood CD8+ T cells of breast cancer patients, 200 μM Kyn, 48 h
Protocol: Mononuclear cells were isolated and obtained from the peripheral whole blood of breast cancer patients by using Ficoll. CD8^+ T cells were sorted by magnetic beads, and seeded into a U-shaped bottom 96-well plate (100000 cells/well) while anti-CD3/CD28 magnetic beads were added to activate T cells. The culture medium was RPMI-1640 added with 10 ng/mL human IL-2. Cells were grouped and treated with drugs as follows. Control group 1 (PBS): culture medium+PBS; Experimental group 2 (Kyn): culture medium+200 μM Kyn; RNA was collected from cells in each group after 48 h, and the expression of PAT4 and SLC7A8 was determined by fluorescence quantitative PCR.

Nc1ccccc1C(=O)CC(N)C(=O)O (centres unmarked) [Kyn, kynurenine]
increase of the luciferase activity (PD-1 promoter; HEK293T overexpressing AhR): 12 fold | increase of the luciferase activity (PD-1 promoter; HEK293T with intrinsic AhR expression (empty control plasmid)): 4 fold | essential amino acids in the cytosol (CD8^+ T cells): had no effect on most of the essential amino acids except some decrease of the intensity of threonine | production of IFN-γ (OT-1 CD8^+ T cells): upregulated | PD-1 expression in CD8+ T cells isolated from tumor, spleen or lymph nodes (B16 melanoma; Kyn 50 μg/mouse i.p. once every two days, 6 days): upregulate | tumor growth (tumors weighed) (B16 melanoma; Kyn-treatment): accelerated tumor growth | PD-1 expression (PD-1 [1]): upregulated | AhR localisation (AhR): promoted the translocation of AhR from the cytosol to nucleus | expression of SLC7A8 and PAT4 (PAT4 and SLC7A8 [2]): upregulated | expression of PD-1 in CD8+ T cells (PD-1 [3]): significant increased | expression of PAT4 and SLC7A8 (PAT4 and SLC7A8 [4]): significantly upregulating
